Results as given in patent US10676465B2, “GLP-1 receptor agonists and uses thereof” (Pfizer Inc., priority 2018, dated 2020).
Like-named read-outs stand apart in the source and are kept apart here.

What was measured:
human GLP-1R [1] = molecular target: human GLP-1R (Homo sapiens, UniProt P43220, G168S); assay: CHO GLP-1R Clone H6 - Assay 1 (HTRF cAMP agonist assay); format: cell-based; details: for EC50: CHO GLP-1R Clone H6, cAMP HTRF, geometric mean
human GLP-1R [2] = molecular target: human GLP-1R (Homo sapiens (Human), UniProt P43220, L260F); assay: CHO GLP-1R Clone C6 - Assay 2 (HTRF cAMP agonist assay, low receptor density); details: for Emax: read-out: Assay 2 Emax (%), CHO GLP-1R Clone C6 (low receptor density)
Sequence of human GLP-1R (Homo sapiens (Human), UniProt P43220, L260F) (P43220 24-463 L260F): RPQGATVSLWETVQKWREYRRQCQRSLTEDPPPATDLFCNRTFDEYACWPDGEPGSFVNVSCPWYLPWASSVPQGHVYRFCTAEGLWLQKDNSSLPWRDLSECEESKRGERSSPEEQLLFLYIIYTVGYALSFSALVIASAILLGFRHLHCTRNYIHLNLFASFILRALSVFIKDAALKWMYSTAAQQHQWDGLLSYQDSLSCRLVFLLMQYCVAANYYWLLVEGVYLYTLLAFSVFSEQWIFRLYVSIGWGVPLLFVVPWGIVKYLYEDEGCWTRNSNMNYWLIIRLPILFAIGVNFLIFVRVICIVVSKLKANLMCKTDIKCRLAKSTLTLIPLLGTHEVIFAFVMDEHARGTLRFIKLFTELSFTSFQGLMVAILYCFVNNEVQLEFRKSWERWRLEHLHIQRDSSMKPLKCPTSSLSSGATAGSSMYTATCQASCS
Procedure: CHO GLP-1R Clone C6—Assay 2
GLP-1R-mediated agonist activity was determined with a cell-based functional assay utilizing an HTRF (Homogeneous Time-Resolved Fluorescence) cAMP detection kit (cAMP HI Range Assay Kit; Cis Bio cat #62AM6PEJ) that measures cAMP levels in the cell. The method is a competitive immunoassay between native cAMP produced by the cells and exogenous cAMP labeled with the dye d2. The tracer binding is visualized by a mAb anti-cAMP labeled with Cryptate. The specific signal (i.e. energy transfer) is inversely proportional to the concentration of cAMP in either a standard or an experimental sample.
The human GLP-1R coding sequence (NCBI Reference Sequence NP_002053.3, including naturally-occurring variant Leu260Phe) was subcloned into pcDNA5-FRT-TO and a clonal CHO cell line stably expressing a low receptor density was isolated using the Flp-In™ T-Rex™ System, as described by the manufacturer (ThermoFisher).
Cells were removed from cryopreservation, re-suspended in 40 mL of Dulbecco's Phosphate Buffered Saline (DPBS—Lonza Cat #17-512Q) and centrifuged at 800×g for 5 minutes at 22° C. The DPBS was aspirated, and the cell pellet was re-suspended in 10 mL of complete growth medium (DMEM:F12 1:1 Mixture with HEPES, L-Gln, 500 mL (DMEM/F12 Lonza Cat #12-719F), 10% heat inactivated fetal bovine serum (Gibco Cat #16140-071), 5 mL of 100× Pen-Strep (Gibco Cat #15140-122), 5 mL of 100×L-Glutamine (Gibco Cat #25030-081), 700 μg/mL Hygromycin (Invitrogen Cat #10687010) and 15 μg/mL Blasticidin (Gibco Cat # R21001). A 1 mL sample of the cell suspension in growth media was counted on a Becton Dickinson ViCell to determine cell viability and cell count per mL. The remaining cell suspension was then adjusted with growth media to deliver 1600 viable cells per well using a Matrix Combi Multidrop reagent dispenser, and the cells were dispensed into a white 384 well tissue culture treated assay plate (Corning 3570). The assay plate was then incubated for 48 hours at 37° C. in a humidified environment (95% O2, 5% CO2)
Varying concentrations of each compound to be tested (in DMSO) were diluted in assay buffer [HBSS with Calcium/Magnesium (Lonza/BioWhittaker cat #10-527F)/0.1% BSA (Sigma Aldrich cat # A7409-1L)/20 mM HEPES (Lonza/BioWhittaker cat #17-737E)] containing 100 μM 3-isobutyl-1-methylxanthin (IBMX; Sigma cat #15879). The final DMSO concentration in the compound/assay buffer mixture is 1%.
After 48 hours, the growth media was removed from the assay plate wells, and the cells were treated with 20 μL of the serially diluted compound in assay buffer for 30 minutes at 37° C. in a humidified environment (95% O2, 5% CO2). Following the 30 minute incubation, 10 μL of labeled d2 cAMP and 10 μL of anti-cAMP antibody (both diluted 1:20 in cell lysis buffer; as described in the manufacturer's assay protocol) were added to each well of the assay plate. The plates were then incubated at room temperature and after 60 minutes, changes in the HTRF signal were read with an Envision 2104 multi-label plate reader using excitation of 330 nm and emissions of 615 and 665 nm. Raw data were converted to nM cAMP by interpolation from a cAMP standard curve (as described in the manufacturer's assay protocol) and the percent effect was determined relative to a saturating concentration of the full agonist GLP-1 (1 μM) included on each plate. EC50 determinations were made from agonist dose response curves analyzed with a curve fitting program using a 4-parameter logistic dose response equation.

[3] = CHO GLP-1R Clone H6, arithmetic mean, relative to saturating GLP-1 (1 μM)
[4] = read-out: Assay 2 EC50, CHO GLP-1R Clone C6 (low receptor density), cAMP HTRF, geometric mean
[5] = arithmetic mean, relative to saturating GLP-1 (1 μM)
[6] = Assay 2 EC50 (nM), CHO GLP-1R Clone C6 (low receptor density), cAMP HTRF, geometric mean
[7] = EC50 in Assay 2, CHO GLP-1R Clone C6, cAMP, geometric mean of replicates

Sequence of human GLP-1R (Homo sapiens, UniProt P43220, G168S) (P43220 24-463 G168S limits assumed): as the sequence (P43220 24-463 L260F) above, with G145S, F237L counted along it

Compound | EC50 (human GLP-1R [1]) | Emax (human GLP-1R [1]; [3]) | EC50 (human GLP-1R [2]; [4]) | Emax (human GLP-1R [2]; [5]) | EC50 (human GLP-1R [2]; [6]) | EC50 (human GLP-1R [2]; [7]) | Assay 2 Emax (%) (human GLP-1R [2]; CHO GLP-1R Clone C6 (low receptor density), arithmetic mean, relative to saturating GLP-1 (1 μM)) | Assay 1 Emax (%) (human GLP-1R [1]; [3])
CC1(c2ccc(Cl)cc2F)Oc2cccc(C3CCN(Cc4nc5ccc(C(=O)O)cc5n4C4CCOC4)CC3)c2O1 (stereo not shown) [Example 61, 2-({4-[2-(4-chloro-2-fluorophenyl)-2-methyl-1,3-benzodioxol-4-yl]piperidin-1-yl}methyl)-1-(tetrahydrofuran-3-yl)-1H-benzimidazole-6-carboxylic acid] | 10 nM | 79% | 240 nM | 85% |  |  |  | 
COCCn1c(CN2CCC(c3cccc4c3OC(C)(c3ccc(OC)cc3Cl)O4)CC2)nc2ccc(C(=O)O)cc21 (stereo not shown) [Example 83, 2-({4-[2-(2-chloro-4-methoxyphenyl)-2-methyl-1,3-benzodioxol-4-yl]piperidin-1-yl}methyl)-1-(2-methoxyethyl)-1H-benzimidazole-6-carboxylic acid] | 3.4 nM | 85% | 44 nM | 88% |  |  |  | 
CC1(c2ccc(Cl)cc2F)Oc2cccc(C3CCN(Cc4nc5ccc(C(=O)O)nc5n4Cc4ncco4)CC3)c2O1 (stereo not shown) [Example 13, 2-({4-[2-(4-Chloro-2-fluorophenyl)-2-methyl-1,3-benzodioxol-4-yl]piperidin-1-yl}methyl)-3-(1,3-oxazol-2-ylmethyl)-3H-imidazo[4,5-b]pyridine-5-carboxylic Acid] | 4.5 nM | 95% |  | 110% | 38 nM |  |  | 
COCCn1c(CN2CCC(c3cccc4c3OC(C)(c3ccccc3OC)O4)CC2)nc2ccc(C(=O)O)cc21 (stereo not shown) [Example 37, 1-(2-methoxyethyl)-2-({4-[2-(2-methoxyphenyl)-2-methyl-1,3-benzodioxol-4-yl]piperidin-1-yl}methyl)-1H-benzimidazole-6-carboxylic acid] | 81 nM | 100% | 1000 nM | 83% |  |  |  | 
CCc1ccc(C2(C)Oc3cccc(C4CCN(Cc5nc6ccc(C(=O)O)cc6n5CCOC)CC4)c3O2)cc1 (stereo not shown) [Example 29, 2-({4-[2-(4-ethylphenyl)-2-methyl-1,3-benzodioxol-4-yl]piperidin-1-yl}methyl)-1-(2-methoxyethyl)-1H-benzimidazole-6-carboxylic acid] | 5.3 nM | 87% | 150 nM | 93% |  |  |  | 
Cn1cc(Cn2c(CN3CCC(c4cccc5c4OC(C)(c4ccc(Cl)cc4F)O5)CC3)nc3ccc(C(=O)O)cc32)nn1 (stereo not shown) [Example 63, 2-({4-[2-(4-chloro-2-fluorophenyl)-2-methyl-1,3-benzodioxol-4-yl]piperidin-1-yl}methyl)-1-[(1-methyl-1H-1,2,3-triazol-4-yl)methyl]-1H-benzimidazole-6-carboxylic acid] | 5.2 nM | 91% | 66 nM | 96% |  |  |  | 
COCCn1c(CN2CCC(c3cccc4c3OC(C)(c3ccc(Cl)cn3)O4)CC2)nc2ccc(C(=O)O)cc21 (stereo not shown) [Example 91, ammonium 2-({4-[2-(5-chloropyridin-2-yl)-2-methyl-1,3-benzodioxol-4-yl]piperidin-1-yl}methyl)-1-(2-methoxyethyl)-1H-benzimidazole-6-carboxylate] | 14000 nM | 100% | > 20000 nM |  |  |  |  | 
O=C(O)c1ccc2nc(CN3CCC(c4cccc5c4O[C@@H](c4ccc(Cl)cc4F)O5)CC3)n(C[C@@H]3CCO3)c2c1 [5, free acid, 2-({4-[(2S)-2-(4-Chloro-2-fluorophenyl)-1,3-benzodioxol-4-yl]piperidin-1-yl}methyl)-1-[(2S)-oxetan-2-ylmethyl]-1H-benzimidazole-6-carboxylic Acid] |  |  |  |  |  | 25 nM |  | 
CN(CCn1c(CN2CCC(c3cccc4c3OC(C)(c3ccc(Cl)cc3F)O4)CC2)nc2ccc(C(=O)O)cc21)S(C)(=O)=O (stereo not shown) [Example 71, 2-({4-[2-(4-chloro-2-fluorophenyl)-2-methyl-1,3-benzodioxol-4-yl]piperidin-1-yl}methyl)-1-{2-[methyl(methylsulfonyl)amino]ethyl}-1H-benzimidazole-6-carboxylic acid] | 6.8 nM | 80% | 74 nM | 80% |  |  |  | 
COCCn1c(CN2CCN(c3cccc4c3OC(C)(c3ccc(Cl)cc3F)O4)CC2)nc2ccc(C(=O)O)cc21 (stereo not shown) [Example 19, 2-({4-[2-(4-chloro-2-fluorophenyl)-2-methyl-1,3-benzodioxol-4-yl]piperazin-1-yl}methyl)-1-(2-methoxyethyl)-1H-benzimidazole-6-carboxylic acid] | 1.2 nM | 87% | 25 nM | 100% |  |  |  | 
COCCn1c(C2CC23CCN(c2cccc4c2OC(C)(c2ccc(Cl)cc2F)O4)CC3)nc2ccc(C(=O)O)cc21 (single isomer, unassigned) [Example 25, 2-{6-[2-(4-chloro-2-fluorophenyl)-2-methyl-1,3-benzodioxol-4-yl]-6-azaspiro[2.5]oct-1-yl}-1-(2-methoxyethyl)-1H-benzimidazole-6-carboxylic acid] | > 20000 nM |  |  |  | > 20000 nM |  |  | 
COCCn1c(CN2CCC(c3cccc4c3OC(C)(c3ccc(C#N)cc3)O4)CC2)nc2ccc(C(=O)O)cc21 (stereo not shown) [Example 34, 2-({4-[2-(4-cyanophenyl)-2-methyl-1,3-benzodioxol-4-yl]piperidin-1-yl}methyl)-1-(2-methoxyethyl)-1H-benzimidazole-6-carboxylic acid] | 7.8 nM | 98% | 110 nM | 88% |  |  |  | 
CCn1cncc1Cn1c(CN2CCC(c3cccc4c3O[C@](C)(c3ccc(Cl)cc3F)O4)CC2)nc2ccc(C(=O)O)cc21 (single isomer, unassigned) [Example 18, Ammonium 2-({4-[2-(4-chloro-2-fluorophenyl)-2-methyl-1,3-benzodioxol-4-yl]piperidin-1-yl}methyl)-1-[(I-ethyl-1H-imidazol-5-yl)methyl]-1H-benzimidazole-6-carboxylate] | 210 nM |  | 1000 nM |  |  |  | 87% | 
COCCn1c(C2CC23CCN(c2cccc4c2OC(C)(c2ccc(Cl)cc2F)O4)CC3)nc2ccc(C(=O)O)cc21 (single isomer, unassigned) [Example 16, 2-{6-[2-(4-Chloro-2-fluorophenyl)-2-methyl-1,3-benzodioxol-4-yl]-6-azaspiro[2.5]oct-1-yl}-1-(2-methoxyethyl)-1H-benzimidazole-6-carboxylic Acid] | 7.7 nM |  |  | 64% | 120 nM |  |  | 90%
CC1(c2ccc(C#N)cc2F)Oc2cccc(C3CCN(Cc4nc5ccc(C(=O)O)cc5n4C[C@@H]4CCO4)CC3)c2O1 (single isomer, unassigned) [Example 8] | 0.3 nM | 92% |  | 91% | 3.6 nM |  |  | 
COCCn1c(CN2CCC(c3cccc4c3OC(C)(c3ccc(C)nc3)O4)CC2)nc2ccc(C(=O)O)cc21 (stereo not shown) [Example 42, 1-(2-methoxyethyl)-2-({4-[2-methyl-2-(6-methylpyridin-3-yl)-1,3-benzodioxol-4-yl]piperidin-1-yl}methyl)-1H-benzimidazole-6-carboxylic acid] | 120 nM | 93% | 1700 nM | 83% |  |  |  | 
CC(=O)N(C)CCn1c(CN2CCC(c3cccc4c3OC(C)(c3ccc(Cl)cc3F)O4)CC2)nc2ccc(C(=O)O)cc21 (stereo not shown) [Example 43, 1-{2-[acetyl(methyl)amino]ethyl}-2-({4-[2-(4-chloro-2-fluorophenyl)-2-methyl-1,3-benzodioxol-4-yl]piperidin-1-yl}methyl)-1H-benzimidazole-6-carboxylic acid] | 3.5 nM | 88% | 65 nM | 86% |  |  |  | 
O=C(O)c1ccc2nc(CN3CCC(c4cccc5c4O[C@@H](c4ccc(Cl)cc4F)O5)CC3)n(C[C@@H]3CCO3)c2c1F [Example 101, 2-({4-[(2S)-2-(4-chloro-2-fluorophenyl)-1,3-benzodioxol-4-yl]piperidin-1-yl}methyl)-7-fluoro-1-[(2S)-oxetan-2-ylmethyl]-1H-benzimidazole-6-carboxylic acid] |  |  | 19 nM | 74% |  |  |  | 
C[C@]1(c2ccc(Cl)cc2F)Oc2cccc(C3CCN(Cc4nc5ccc(C(=O)O)cc5n4C[C@@H]4CCO4)CC3)c2O1 [7, free acid, 2-({4-[(2S)-2-(4-Chloro-2-fluorophenyl)-2-methyl-1,3-benzodioxol-4-yl]piperidin-1-yl}methyl)-1-[(2S)-oxetan-2-ylmethyl]-1H-benzimidazole-6-carboxylic Acid] |  |  |  |  |  | 4.3 nM |  | 
C[C@]1(c2ccc(Cl)cc2F)Oc2cccc(C3CCN(Cc4nc5ccc(C(=O)O)c(F)c5n4C[C@@H]4CCO4)CC3)c2O1 [Example 100, 2-({4-[(2S)-2-(4-chloro-2-fluorophenyl)-2-methyl-1,3-benzodioxol-4-yl]piperidin-1-yl}methyl)-7-fluoro-1[(2S)-oxetan-2-ylmethyl]-1H-benzimidazole-6-carboxylic acid] |  |  | 7.6 nM | 99% |  |  |  | 
COCCn1c(CN2CCC(c3cccc4c3OC(C)(c3cccc(C#N)c3)O4)CC2)nc2ccc(C(=O)O)cc21 (stereo not shown) [Example 87, 2-({4-[2-(3-cyanophenyl)-2-methyl-1,3-benzodioxol-4-yl]piperidin-1-yl}methyl)-1-(2-methoxyethyl)-1H-benzimidazole-6-carboxylic acid] | 570 nM | 89% |  |  |  |  |  | 
COCCn1c(CN2CCC(c3cccc4c3OC(C)(c3cccc(C)n3)O4)CC2)nc2ccc(C(=O)O)cc21 (stereo not shown) [Example 36, 1-(2-methoxyethyl)-2-({4-[2-methyl-2-(6-methylpyridin-2-yl)-1,3-benzodioxol-4-yl]piperidin-1-yl}methyl)-1H-benzimidazole-6-carboxylic acid] | 760 nM | 85% |  |  |  |  |  | 
